Assay results published in ChEMBL document CHEMBL4033766, “Discovery of the Antitumor Effects of a Porphyrazine Diol (Pz 285) in MDA-MB-231 Breast Tumor Xenograft Models in Mice” (ACS Med Chem Lett, 2017).
The source made the active and inactive calls. The calls are words filed in the database; no cut-off is given here.

Key:
MDA-MB-231 = experiment: Antiproliferative activity against human MDA-MB-231 cells at 25 uM after 48 hrs by MTS assay relative to control; format: functional
[1] = Antitumor activity against Her2-positive human MDA-MB-231-LM24 cells xenografted in SCID-beige mouse harboring Td-tomato and Luc2 assessed as survival days at 2.5 mg/kg, iv administered every 7 days for 28 days (reference value: 9.5 days); format: functional
[2] = Antitumor activity against Her2-positive human MDA-MB-231-LM24 cells xenografted in SCID-beige mouse harboring Td-tomato and Luc2 assessed as survival days at 1.25 mg/kg, iv administered every 7 days for 28 days (reference value: 9.5 days); format: functional
MDA-MB-231-LM24 = experiment: Antimetastatic activity against Her2-positive human MDA-MB-231-LM24 cells xenografted in SCID-beige mouse harboring Luc2 assessed as reduction in tumor burden in lung at 2.5 mg/kg, iv administered every 7 days for 2 weeks by bioluminescence analysis; format: functional, organism-based
[3] = Antitumor activity against Her2-positive human MDA-MB-231-LM24 cells xenografted in SCID-beige mouse harboring Td-tomato and Luc2 assessed as tumor growth inhibition at 2.5 mg/kg, iv administered every 7 days for 28 days relative to control; format: functional; settings: MDA-MB-231-LM24, iv, read-out: TGI
[4] = Antiproliferative activity against human MDA-MB-231-LM24 cells after 48 hrs by MTS assay; format: functional, cell-based; settings: MDA-MB-231-LM24, 48 h

In the case of `CO[C@]1(C)OC2=C(O[C@@]1(C)OC)c1nc2nc2[nH]c(nc3nc(nc4[nH]c(n1)c1c4O[C@@](C)(OC)[C@](C)(OC)O1)C1=C3O[C@@](C)(OC)[C@](C)(OC)O1)c1c2O[C@@](C)(OC)[C@](C)(OC)O1`, the Activity (MDA-MB-231) is reported as “inactive”.

`COc1cccc2c1C(=O)c1c(O)c3c(c(O)c1C2=O)C[C@@](O)(C(=O)CO)C[C@@H]3O[C@H]1C[C@H](N)[C@H](O)[C@H](C)O1` [DOXORUBICIN] showed a Survival [1] of 14 days and a Survival [2] of 20 days.

With `CO[C@]1(C)OC2=C(O[C@@]1(C)OC)c1nc2nc2[nH]c(nc3nc(nc4[nH]c(n1)c1c4O[C@@](C)(OC)[C@](C)(OC)O1)-c1c(OCCO)ccc(OCCO)c1-3)c1c2O[C@@](C)(OC)[C@](C)(OC)O1` the Activity (MDA-MB-231-LM24) was “Active”, the Survival [1] was 22.5 days and the inhibition in vivo at 2.5 mg/kg [3] was greater than 65%. For the same compound, the Activity (MDA-MB-231) was 40% and the IC50 [4] was 15 µM.
